Measured values taken from PubChem BioAssay (NCI).
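Cultured in 96-well plates, cells were exposed to test compound for 48 hours across five concentrations. GI50 is the concentration that inhibits growth by half. TGI marks complete inhibition of growth.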

What was measured:
Test in all cases: DTP human tumour cell line panel, 48 h; in the data active means GI50 below about 0.43 µM; inactive means the rest
[1] = test system: 786-0 renal
[2] = test system: A498 renal
[3] = test system: A549 NSCLC
[4] = test system: ACHN renal
[5] = test system: BT-549 breast
[6] = test system: CAKI-1 renal
[7] = test system: CCRF-CEM leukemia
[8] = test system: COLO 205 colon
[9] = test system: DU-145 prostate
[10] = test system: HCC-2998 colon
[11] = test system: HCT-116 colon
[12] = test system: HCT-15 colon
[13] = test system: HL-60(TB) leukemia
[14] = test system: HOP-62 NSCLC
[15] = test system: HOP-92 NSCLC
[16] = test system: HS 578T breast
[17] = test system: HT29 colon
[18] = test system: IGROV1 ovarian
[19] = test system: K-562 leukemia
[20] = test system: KM12 colon
[21] = test system: LOX IMVI melanoma
[22] = test system: M14 melanoma
[23] = test system: MALME-3M melanoma
[24] = test system: MCF7 breast
[25] = test system: MDA-MB-231 breast
[26] = test system: MDA-MB-435
[27] = test system: MOLT-4 leukemia
[28] = test system: NCI-H226 lung
[29] = test system: NCI-H23 lung
[30] = test system: NCI-H460 lung
[31] = test system: NCI-H522 lung
[32] = test system: NCI/ADR-RES ovarian
[33] = test system: OVCAR-3 ovarian
[34] = test system: OVCAR-4 ovarian
[35] = test system: OVCAR-5 ovarian
[36] = test system: OVCAR-8 ovarian
[37] = test system: PC-3 prostate
[38] = test system: RPMI-8226 leukemia
[39] = test system: RXF 393 renal
[40] = test system: SF-268 CNS
[41] = test system: SF-295 CNS
[42] = test system: SF-539 CNS
[43] = test system: SK-MEL-2 melanoma
[44] = test system: SK-MEL-28 melanoma
[45] = test system: SK-MEL-5 melanoma
[46] = test system: SK-OV-3 ovarian
[47] = test system: SN12C renal
[48] = test system: SNB-19 CNS
[49] = test system: SNB-75 CNS
[50] = test system: SR leukemia
[51] = test system: SW-620 colon
[52] = test system: T-47D breast
[53] = test system: TK-10 renal
[54] = test system: U251 CNS
[55] = test system: UACC-257 melanoma
[56] = test system: UACC-62 melanoma
[57] = test system: UO-31 renal

O=C1NC(O)C(c2c[nH]c3ccccc23)=C1c1c[nH]c2ccccc12 (centres undefined)
> 25 µM: TGI [1] | TGI [2] | TGI [3] | TGI [4] | TGI [5] | TGI [6] | TGI [7] | TGI [8] | TGI [9] | TGI [10] | TGI [11] | TGI [12] | TGI [13] | TGI [14] | TGI [15] | TGI [16] | TGI [17] | TGI [18] | TGI [19] | TGI [20] | TGI [21] | TGI [22] | TGI [23] | TGI [24] | TGI [25] | TGI [26] | TGI [27] | TGI [28] | TGI [29] | TGI [30] | TGI [31] | TGI [32] | TGI [33] | TGI [34] | TGI [35] | TGI [36] | TGI [37] | TGI [38] | TGI [39] | TGI [40] | TGI [41] | TGI [42] | TGI [43] | TGI [44] | TGI [45] | TGI [46] | TGI [47] | TGI [48] | TGI [49] | TGI [50] | TGI [51] | TGI [52] | TGI [53] | TGI [54] | TGI [55] | TGI [56] | TGI [57]
inactive: GI50 [1] > 25 µM | GI50 [2] > 25 µM | GI50 [3] > 25 µM | GI50 [4] > 25 µM | GI50 [5] > 25 µM | GI50 [6] > 25 µM | GI50 [7] > 25 µM | GI50 [8] > 25 µM | GI50 [9] > 25 µM | GI50 [10] > 25 µM | GI50 [11] > 25 µM | GI50 [12] 18.4 µM | GI50 [13] > 25 µM | GI50 [14] > 25 µM | GI50 [15] 4.42 µM | GI50 [16] 25 µM | GI50 [17] > 25 µM | GI50 [18] > 25 µM | GI50 [19] > 21.9 µM | GI50 [20] > 25 µM | GI50 [21] > 22.5 µM | GI50 [22] > 25 µM | GI50 [23] > 25 µM | GI50 [24] > 25 µM | GI50 [25] > 16.5 µM | GI50 [26] > 25 µM | GI50 [27] > 25 µM | GI50 [28] > 25 µM | GI50 [29] > 25 µM | GI50 [30] > 25 µM | GI50 [31] > 25 µM | GI50 [32] > 25 µM | GI50 [33] > 25 µM | GI50 [34] > 25 µM | GI50 [35] > 25 µM | GI50 [36] > 25 µM | GI50 [37] 24.8 µM | GI50 [38] > 25 µM | GI50 [39] > 25 µM | GI50 [40] > 25 µM | GI50 [41] > 25 µM | GI50 [42] > 25 µM | GI50 [43] > 25 µM | GI50 [44] > 25 µM | GI50 [45] > 25 µM | GI50 [46] > 25 µM | GI50 [47] > 25 µM | GI50 [48] > 25 µM | GI50 [49] > 25 µM | GI50 [50] > 23.7 µM | GI50 [51] > 25 µM | GI50 [52] > 25 µM | GI50 [53] > 25 µM | GI50 [54] > 25 µM | GI50 [55] > 25 µM | GI50 [56] 8.01 µM | GI50 [57] 15.7 µM
